Measurements as given in patent publication US7855290B2, “Pyridine derivatives and pyrimidine derivatives (3)” (Eisai R&D Management Co., Ltd., priority 2005, dated 2010).

Assays:
[1] = tested on: Human umbilical vein endothelial cells (HUVECs); experiment: Inhibitory activity against the growth of vascular endothelial cells stimulated with hepatocyte growth factor; type: cell-based; settings: HUVEC, HGF stimulated, third day, Cell Counting Kit-8, read-out: IC50 (cell proliferation activity)
Method: Human umbilical vein endothelial cells (HUVECs) were isolated according to the reported method (Shin Seikagaku Jikken Koza, “Cell culturing techniques”, p 197-202), and then cultured in a 5% CO2 incubator (37° C.) using EGM-2 medium (purchased from Clonetics) until the cells reached confluency.
HUVECs were suspended in a serum-free medium for endothelial cell culture (SFM, purchased from GIBCO RBL) containing 2% FBS. The cell suspension (2×10^4 cells/ml) was put in a cell culturing 96-well plate (purchased from NUNC, Production No. 167008) at 0.1 ml/well, and then cultured in a 5% CO2 incubator (37° C.) overnight. After the culture, each well was supplied with 50 μl of the test substance diluted with a 2% FBS-containing serum-free medium for endothelial cell culture and 50 μl of HGF (purchased from R&D) diluted at a concentration of 120 ng/ml with a 2% FBS-containing serum-free medium for endothelial cell culture, followed by culturing in a 5% CO2 incubator (37° C.). On the third day after the addition of the test substance, each well was supplied with 10 μl of Cell Counting Kit-8 (purchased from DOJINDO, Production No. 343-07623), and then the plate was incubated in a 5% CO2 incubator (37° C.) for about 2 hours. After the incubation, using a Plate Reader MTP-500 (Corona Electric), the absorbance of each well was determined at a measurement wavelength of 450 nm and a reference wavelength of 660 nm. While defining the absorbance of a well supplied with HGF and no test substance as 100% cell proliferation activity and the absorbance of the well supplied with no test substance and no HGF as 0% cell proliferation activity, the cell proliferation activity ratio (%) was calculated for each cell.

[2] = tested on: Human gastric cancer cells (MKN-45); experiment: Inhibitory activity against the proliferation of human gastric cancer cells (MKN-45); type: cell-based; settings: 72 h, MKN-45, 1% FBS RPMI1640, 3 days, Cell Counting Kit-8
Method: Human gastric cancer cells (MKN-45) were suspended in a 1% FBS-containing RPMI1640 medium (purchased from Sigma). The cell suspension (1×10^4 cells/ml) was added in a 96-well plate for cell culture (purchased from NUNC, Production No. 167008) at 0.1 ml/well, and then cultured in a 5% CO2 incubator (37° C.) overnight. After the culture, each well was supplied with 0.1 ml of a test substance diluted with a 1% FBS-containing RPMI1640 medium, followed by culturing in a 5% CO2 incubator (37° C.) for 3 days. After the culture, each well was supplied with 10 μl of Cell Counting Kit-8 (purchased from DOJINDO, Production No. 343-07623), followed by incubation in a 5% CO2 incubator (37° C.) for about 1.5 hrs. After the incubation, using the Plate Reader MTP-500 (Corona Electric), the absorbance of each well was determined at a measurement wavelength of 450 nm and a reference wavelength of 660 nm.

IC50 [2]: 17 nM
Compound: CN1CCN(C2CCN(C(=O)Nc3cc(Oc4ccc(NC(=O)C5(C(=O)Nc6ccc(F)cc6)CC5)c(F)c4)ccn3)CC2)CC1 [Example 15, N-(2-Fluoro-4-{[2-({[4-(4-methylpiperazin-1-yl)piperidin-1-yl]carbonyl}amino)pyridin-4-yl]oxy}phenyl)-N′-(4-fluorophenyl)cyclopropane-1,1-dicarboxamide]
IC50 [1]: 15 nM
